Measured values reported in ChEMBL document CHEMBL1156324, “Purine derivatives as potent gamma-secretase modulators” (Bioorg Med Chem Lett, 2010).

Experiments:
[1] = Activity at gamma-secretase expressed in human SH-SY5Y cells assessed as inhibition of amyloid beta 40 production by HTRF immunoassay; type: cell-based
[2] = Activity at gamma-secretase expressed in human SH-SY5Y cells assessed as inhibition of amyloid beta 42 production by HTRF immunoassay; type: cell-based
[3] = biological target: Gamma-secretase (Homo sapiens) (UniProt Q96BI3+Q9NZ42+Q8WW43+P49768+Q92542+P49810); assay: Selectivity ratio, IC50 for human gamma-secretase-mediated Notch deltaE cleavage to IC50 for gamma-secretase-mediated amyloid beta 42 production; type: protein-complex assay
Gamma-secretase = assay: Inhibition of gamma-secretase-mediated Notch deltaE cleavage in human HeLa cells by luciferase assay; type: cell-based
[4] = Drug level in APP-YAC transgenic mouse plasma at 100 mg/kg, po after 6 hrs; type: ADME, organism-based; design: dose 100 mg/kg, route oral; conditions: read-out: Drug uptake
[5] = Drug level in APP-YAC transgenic mouse brain at 100 mg/kg, po after 6 hrs; type: ADME, organism-based; design: dose 100 mg/kg, route oral; conditions: read-out: Drug uptake
Mus musculus = assay: Inhibition of Abeta42 production in APP-YAC transgenic mouse brain at 100 mg/kg, po after 6 hrs; type: functional; conditions: read-out: INH

Structure (SMILES): COc1ccc(N2CCN(c3nc(Nc4cc(C(C)(C)C)ccc4C)c4c(ncn4CC(F)(F)F)n3)CC2(C)C)cc1
- IC50 [1]: 420 nM
- IC50 [2]: 55 nM

Structure (SMILES): Cc1ccc(C(C)(C)C)cc1Nc1nc(N2CCC(Cc3ccncc3)CC2)nc2ncn(C)c12
- IC50 [1]: 310 nM
- IC50 [2]: 30 nM

Structure (SMILES): CCc1ccc(N2CCN(c3nc(Nc4cc(C(C)(C)C)ccc4C)c4c(ncn4C)n3)CC2)cc1
- IC50 [1]: 3900 nM
- IC50 [2]: 810 nM

Structure (SMILES): Cc1ccc(C(C)(C)C)cc1Nc1nc(N2CCC(c3ccncc3)CC2)nc2ncn(C)c12
- IC50 [1]: 1800 nM
- IC50 [2]: 350 nM

Structure (SMILES): Cc1ccc(C(C)(C)C)cc1Nc1nc(N2CCC(n3ccnc3)CC2)nc2ncn(C)c12
- IC50 [1]: 1600 nM
- IC50 [2]: 340 nM

Structure (SMILES): COc1ccc(NCCNc2nc(Nc3cc(C(C)(C)C)ccc3C)c3c(ncn3C)n2)cc1
- IC50 [1]: 1100 nM
- IC50 [2]: 500 nM

Structure (SMILES): COc1ccc(N2CCN(c3nc(Nc4cc(C(C)(C)C)ccc4C)c4c(ncn4C)n3)CC2)cc1
- Ratio IC50 [3]: > 1300
- IC50 (Gamma-secretase): > 50000 nM
- IC50 [1]: 730 nM
- IC50 [2]: 39 nM

Structure (SMILES): COCCCCN1CCN(c2nc(Nc3cc(C(C)(C)C)ccc3C)c3c(ncn3C)n2)CC1
- IC50 [1]: 4700 nM
- IC50 [2]: 870 nM

Structure (SMILES): Cc1ccc(C(C)(C)C)cc1Nc1nc(N2CCC(Oc3ccncc3)CC2)nc2ncn(C)c12
- IC50 [1]: 57 nM
- IC50 [2]: 9.4 nM

Structure (SMILES): Cc1ccc(C(C)(C)C)cc1Nc1nc(N2CCN(Cc3ccncc3)CC2)nc2ncn(C)c12
- Ratio IC50 [3]: 760
- IC50 (Gamma-secretase): 9100 nM
- IC50 [1]: 130 nM
- IC50 [2]: 12 nM

Structure (SMILES): Cc1cc(OC2CCN(c3nc(Nc4cc(C(C)(C)C)ccc4C)c4c(ncn4C)n3)CC2)ncn1
- Ratio IC50 [3]: 810
- IC50 (Gamma-secretase): 13000 nM
- IC50 [1]: 120 nM
- IC50 [2]: 16 nM
- concentration at 6 h [4]: 27 µM
- concentration at 6 h [5]: 7.8 µM
- inhibition in vivo at 100 mg/kg (Mus musculus): 69%

Structure (SMILES): COc1ccc(N2CCN(c3nc(Nc4cc(C(C)(C)C)ccc4C)c4[nH]ccc4n3)CC2(C)C)cc1
- IC50 [1]: 3000 nM
- IC50 [2]: 750 nM

Structure (SMILES): Cc1ccc(C(C)(C)C)cc1Nc1nc(-c2ccc(Cc3ccncc3)cc2)nc2ncn(C)c12
- IC50 [1]: 1100 nM
- IC50 [2]: 800 nM

Structure (SMILES): Cc1ccc(C(C)(C)C)cc1Nc1nc(N2CCN(CC3CCOCC3)CC2)nc2ncn(C)c12
- IC50 [1]: 8000 nM
- IC50 [2]: 910 nM

Structure (SMILES): COc1ccc(N2CCN(c3nc(Nc4cc(C(C)(C)C)ccc4C)c4c(n3)nc(C(F)(F)F)n4C)CC2(C)C)cc1
- Ratio IC50 [3]: > 1000
- IC50 (Gamma-secretase): > 50000 nM
- IC50 [1]: 1000 nM
- IC50 [2]: 50 nM

Structure (SMILES): COc1ccc(N2CCN(c3nc(Nc4cc(C(C)(C)C)ccc4C)c4c(n3)nc(C)n4C)CC2(C)C)cc1
- Ratio IC50 [3]: 420
- IC50 (Gamma-secretase): 9200 nM
- IC50 [1]: 160 nM
- IC50 [2]: 22 nM

Structure (SMILES): COc1ccc(N2CCN(c3nc(Nc4cc(C(C)(C)C)ccc4C)c4c(ncn4C)n3)CC2(C)C)cc1
- Ratio IC50 [3]: > 2400
- IC50 (Gamma-secretase): > 50000 nM
- IC50 [1]: 350 nM
- IC50 [2]: 21 nM
- concentration at 6 h [4]: 23 µM
- concentration at 6 h [5]: 7.8 µM
- inhibition in vivo at 100 mg/kg (Mus musculus): 73%

Structure (SMILES): COc1ccc(N2CCN(c3nc(Nc4cc(C(C)(C)C)ccc4C)c4c(ncn4C(C)C)n3)CC2(C)C)cc1
- IC50 [1]: 350 nM
- IC50 [2]: 50 nM

Structure (SMILES): COc1ccc(N2CCCN(c3nc(Nc4cc(C(C)(C)C)ccc4C)c4c(ncn4C)n3)CC2)cc1
- IC50 [1]: 4100 nM
- IC50 [2]: 380 nM

Structure (SMILES): COc1ccc(N2CCN(c3nc(Nc4cc(C(C)(C)C)ccc4C)cc(OC)n3)CC2(C)C)cc1
- IC50 [1]: 5700 nM
- IC50 [2]: 260 nM

Structure (SMILES): COc1ccc(N2CCN(c3nc(Nc4cc(C(C)(C)C)ccc4C)c4cccnc4n3)CC2(C)C)cc1
- IC50 [1]: 3100 nM
- IC50 [2]: 210 nM

Structure (SMILES): COc1ccc(N2CCN(c3nc(Nc4cc(C(C)(C)C)ccc4C)c4[nH]cnc4n3)CC2(C)C)cc1
- IC50 [1]: 1000 nM
- IC50 [2]: 68 nM

Structure (SMILES): Cc1ccc(C(C)(C)C)cc1Nc1nc(N2CCC(c3ccccc3)C2)nc2ncn(C)c12 (centres undefined)
- IC50 [1]: 630 nM
- IC50 [2]: 54 nM

Structure (SMILES): Cc1ccc(C(C)(C)C)cc1Nc1nc(NCCc2cnn(C)c2)nc2ncn(C)c12
- Ratio IC50 [3]: 330
- IC50 (Gamma-secretase): 22000 nM
- IC50 [1]: 400 nM
- IC50 [2]: 67 nM

Structure (SMILES): COc1ccc(N2CCN(c3nc(Nc4cc(C(C)(C)C)ccc4C)c4c(ncn4C)n3)CC2(C)C)cc1F
- IC50 [1]: 270 nM
- IC50 [2]: 21 nM

Structure (SMILES): Cc1ccc(C(C)(C)C)cc1Nc1nc(NCCc2ccncc2)nc2ncn(C)c12
- IC50 [1]: 250 nM
- IC50 [2]: 36 nM

Structure (SMILES): COc1ccc(N2CCN(c3nc(Nc4cc(C(C)(C)C)ccc4C)c4ncn(C)c4n3)CC2(C)C)cc1
- IC50 [1]: 2600 nM
- IC50 [2]: 130 nM
